Literature values as cited in PMC6482886 (Chemical Science, 2019).

Columns and labels:
[1] = target: T1, hDMX (Homo sapiens, UniProt O15151)
T1 sequence (O15151 1-392): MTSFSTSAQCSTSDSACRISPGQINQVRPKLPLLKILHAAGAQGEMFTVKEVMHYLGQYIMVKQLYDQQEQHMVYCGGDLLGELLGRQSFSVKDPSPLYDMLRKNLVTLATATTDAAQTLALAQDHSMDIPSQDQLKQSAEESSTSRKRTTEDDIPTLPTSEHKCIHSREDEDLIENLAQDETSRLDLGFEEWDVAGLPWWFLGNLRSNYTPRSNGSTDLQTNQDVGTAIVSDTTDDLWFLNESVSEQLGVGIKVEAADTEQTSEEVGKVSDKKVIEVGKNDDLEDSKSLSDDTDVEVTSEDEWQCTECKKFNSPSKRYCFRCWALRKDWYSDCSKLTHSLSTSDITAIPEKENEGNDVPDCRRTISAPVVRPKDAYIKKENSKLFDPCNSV

Question: For `CCOc1cc(/C=C2/C(=O)N(c3ccccc3)N=C2C)cc(Cl)c1OCC(=O)OC` [SJ-172550], which “binding affinity to hDMX compared with p53” value [1] is on record?
Answer: less affinity to hDMX than p53

Question: For `N#Cc1c2ccc(N)cc2nc2cc(N)ccc12` [CTX1], which “cellular IC50 / cellular activity reported in the literature” value is on record?
Answer: tens to hundreds of micromolar range
